“And” between values parts separate entries of the source, which are not always exact repeats. Identical values can stand only once. Inconclusive results and toxic doses are left out.
Test system: L1210 leukemia ip in BDF1 mice, survival T/C
Assay: NCI In Vivo Anticancer Drug Screen. Data for tumor model L1210 Leukemia (intraperitoneal) in B6D2F1 (BDF1) mice
Settings: endpoint: mean survival time, higher = longer survival
In short: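 In this screen, tumor-bearing mice given compound are compared to those given vehicle, and their survival values are reported as a treated-to-control quotient.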

[1] = dose: 100.0 mg/kg/injection, schedule: Q01DX001 (ip), vehicle: carboxymethylcellulose (CMC)
[2] = dose: 200.0 mg/kg/injection, schedule: Q01DX001 (ip), vehicle: carboxymethylcellulose (CMC)
[3] = dose: 400.0 mg/kg/injection, schedule: Q01DX001 (ip), vehicle: carboxymethylcellulose (CMC)
[4] = dose: 100.0 mg/kg/injection, schedule: Q01DX001 (ip), vehicle: saline

For `O=C(NP(=O)(N1CC1)N1CC1)c1cc(I)ccc1I`, the T/C (dose: 1.0 mg/kg/injection, schedule: Q01DX001 (ip), vehicle: saline with Tween-80) was 99 % of control, the T/C (dose: 1.0 mg/kg/injection, schedule: Q01DX001 (ip), vehicle: saline) was 95 % of control and 98 % of control and the T/C (dose: 1.0 mg/kg/injection, schedule: Q01DX001 (oral), vehicle: saline with Tween-80) was 106 % of control. The T/C (dose: 1.0 mg/kg/injection, schedule: Q01DX001 (oral), vehicle: saline) was 97 % of control, the T/C (dose: 1.0 mg/kg/injection, schedule: Q01DX009 (ip), vehicle: saline with Tween-80) was 103 % of control and the T/C (dose: 1.0 mg/kg/injection, schedule: Q01DX009 (ip), vehicle: saline) was 97 % of control. For the same compound, the T/C (dose: 1.0 mg/kg/injection, schedule: Q04DX003 (ip), vehicle: saline with Tween-80) was 107 % of control, the T/C (dose: 1.0 mg/kg/injection, schedule: Q04DX003 (ip), vehicle: saline) was 104 % of control and 111 % of control and the T/C (dose: 2.0 mg/kg/injection, schedule: Q01DX001 (ip), vehicle: saline with Tween-80) was 93 % of control. The T/C (dose: 2.0 mg/kg/injection, schedule: Q01DX001 (ip), vehicle: saline) was 100 % of control and 110 % of control, the T/C (dose: 2.0 mg/kg/injection, schedule: Q01DX001 (oral), vehicle: saline with Tween-80) was 100 % of control and the T/C (dose: 2.0 mg/kg/injection, schedule: Q01DX001 (oral), vehicle: saline) was 94 % of control. The T/C (dose: 2.0 mg/kg/injection, schedule: Q01DX009 (ip), vehicle: saline with Tween-80) was 105 % of control, the T/C (dose: 2.0 mg/kg/injection, schedule: Q04DX003 (ip), vehicle: saline) was 97 % of control and 111 % of control and the T/C (dose: 4.0 mg/kg/injection, schedule: Q01DX001 (ip), vehicle: saline with Tween-80) was 97 % of control. The T/C (dose: 4.0 mg/kg/injection, schedule: Q01DX001 (ip), vehicle: saline) was 100 % of control and 108 % of control, the T/C (dose: 4.0 mg/kg/injection, schedule: Q01DX001 (oral), vehicle: saline with Tween-80) was 107 % of control and the T/C (dose: 4.0 mg/kg/injection, schedule: Q01DX001 (oral), vehicle: saline) was 92 % of control. For the same compound, the T/C (dose: 4.0 mg/kg/injection, schedule: Q01DX009 (ip), vehicle: saline with Tween-80) was 101 % of control, the T/C (dose: 4.0 mg/kg/injection, schedule: Q04DX003 (ip), vehicle: saline with Tween-80) was 101 % of control and the T/C (dose: 4.0 mg/kg/injection, schedule: Q04DX003 (ip), vehicle: saline) was 97 % of control. For the same compound, the T/C (dose: 8.0 mg/kg/injection, schedule: Q01DX001 (ip), vehicle: saline with Tween-80) was 101 % of control, the T/C (dose: 8.0 mg/kg/injection, schedule: Q01DX001 (ip), vehicle: saline) was 99 % of control and 118 % of control and the T/C (dose: 8.0 mg/kg/injection, schedule: Q01DX001 (oral), vehicle: saline with Tween-80) was 101 % of control. For the same compound, the T/C (dose: 8.0 mg/kg/injection, schedule: Q01DX001 (oral), vehicle: saline) was 90 % of control, the T/C (dose: 8.0 mg/kg/injection, schedule: Q01DX009 (ip), vehicle: saline with Tween-80) was 121 % of control and the T/C (dose: 8.0 mg/kg/injection, schedule: Q04DX003 (ip), vehicle: saline with Tween-80) was 115 % of control. For the same compound, the T/C (dose: 8.0 mg/kg/injection, schedule: Q04DX003 (ip), vehicle: saline) was 102 % of control, the T/C (dose: 16.0 mg/kg/injection, schedule: Q01DX001 (ip), vehicle: saline with Tween-80) was 109 % of control and the T/C (dose: 16.0 mg/kg/injection, schedule: Q01DX001 (ip), vehicle: saline) was 100 % of control and 121 % of control. For the same compound, the T/C (dose: 16.0 mg/kg/injection, schedule: Q01DX001 (oral), vehicle: saline with Tween-80) was 102 % of control, the T/C (dose: 16.0 mg/kg/injection, schedule: Q01DX001 (oral), vehicle: saline) was 97 % of control and the T/C (dose: 16.0 mg/kg/injection, schedule: Q04DX003 (ip), vehicle: saline) was 104 % of control. For the same compound, the T/C (dose: 32.0 mg/kg/injection, schedule: Q01DX001 (ip), vehicle: saline with Tween-80) was 112 % of control, the T/C (dose: 32.0 mg/kg/injection, schedule: Q01DX001 (ip), vehicle: saline) was 99 % of control and 110 % of control and the T/C (dose: 32.0 mg/kg/injection, schedule: Q01DX001 (oral), vehicle: saline with Tween-80) was 101 % of control. The T/C (dose: 32.0 mg/kg/injection, schedule: Q01DX001 (oral), vehicle: saline) was 96 % of control, the T/C (dose: 32.0 mg/kg/injection, schedule: Q01DX009 (ip), vehicle: saline with Tween-80) was 155 % of control and the T/C (dose: 32.0 mg/kg/injection, schedule: Q01DX009 (ip), vehicle: saline) was 162 % of control. The T/C (dose: 64.0 mg/kg/injection, schedule: Q01DX001 (ip), vehicle: saline with Tween-80) was 111 % of control, the T/C (dose: 64.0 mg/kg/injection, schedule: Q01DX001 (ip), vehicle: saline) was 105 % of control and 116 % of control and the T/C (dose: 64.0 mg/kg/injection, schedule: Q01DX001 (oral), vehicle: saline with Tween-80) was 98 % of control. For the same compound, the T/C (dose: 64.0 mg/kg/injection, schedule: Q01DX001 (oral), vehicle: saline) was 100 % of control, the T/C (dose: 64.0 mg/kg/injection, schedule: Q01DX009 (ip), vehicle: saline with Tween-80) was 112 % of control and the T/C (dose: 64.0 mg/kg/injection, schedule: Q01DX009 (ip), vehicle: saline) was 183 % of control. The T/C (dose: 128.0 mg/kg/injection, schedule: Q01DX001 (ip), vehicle: saline with Tween-80) was 123 % of control, the T/C (dose: 128.0 mg/kg/injection, schedule: Q01DX001 (ip), vehicle: saline) was 114 % of control and the T/C (dose: 128.0 mg/kg/injection, schedule: Q01DX001 (oral), vehicle: saline with Tween-80) was 109 % of control. The T/C (dose: 128.0 mg/kg/injection, schedule: Q01DX001 (oral), vehicle: saline) was 93 % of control, the T/C (dose: 128.0 mg/kg/injection, schedule: Q01DX009 (ip), vehicle: saline) was 95 % of control and the T/C (dose: 128.0 mg/kg/injection, schedule: Q04DX003 (ip), vehicle: saline with Tween-80) was 176 % of control. The T/C (dose: 128.0 mg/kg/injection, schedule: Q04DX003 (ip), vehicle: saline) was 151 % of control and 159 % of control, the T/C (dose: 256.0 mg/kg/injection, schedule: Q01DX001 (ip), vehicle: saline) was 124 % of control and the T/C (dose: 256.0 mg/kg/injection, schedule: Q01DX001 (oral), vehicle: saline) was 120 % of control. For the same compound, the T/C (dose: 256.0 mg/kg/injection, schedule: Q04DX003 (ip), vehicle: saline with Tween-80) was 105 % of control, the T/C (dose: 256.0 mg/kg/injection, schedule: Q04DX003 (ip), vehicle: saline) was 164 % of control and the T/C (dose: 512.0 mg/kg/injection, schedule: Q01DX001 (ip), vehicle: saline with Tween-80) was 99 % of control. The T/C (dose: 512.0 mg/kg/injection, schedule: Q01DX001 (oral), vehicle: saline) was 122 % of control and the T/C (dose: 512.0 mg/kg/injection, schedule: Q04DX003 (ip), vehicle: saline) was 100 % of control.
For `C#CC(OC(=O)c1cc([N+](=O)[O-])cc([N+](=O)[O-])c1)C1OC(C)(C)OC1C1COC(C)(C)O1` (stereo not given), the T/C [1] was 106 % of control, the T/C [2] was 106 % of control and the T/C [3] was 106 % of control.
With `c1ccc(CC(CNCC2C(c3ccccc3)C2c2ccccc2)c2ccccc2)cc1` (stereo not given) the T/C (dose: 12.5 mg/kg/injection, schedule: Q04DX002 (ip), vehicle: saline with Tween-80) was 96 % of control, the T/C (dose: 25.0 mg/kg/injection, schedule: Q04DX002 (ip), vehicle: saline with Tween-80) was 93 % of control and the T/C (dose: 50.0 mg/kg/injection, schedule: Q04DX002 (ip), vehicle: saline with Tween-80) was 90 % of control.
`[O-]/[N+](=C\c1ccc(OCc2ccccc2)cc1)c1ccccc1` was tested, and the T/C (dose: 50.0 mg/kg/injection, schedule: Q01DX001 (ip), vehicle: saline) was 102 % of control, the T/C [4] was 102 % of control and the T/C (dose: 200.0 mg/kg/injection, schedule: Q01DX001 (ip), vehicle: saline) was 108 % of control. For the same compound, the T/C (dose: 400.0 mg/kg/injection, schedule: Q01DX001 (ip), vehicle: saline) was 90 % of control.
`CCOC(=O)C(C)Oc1cc(C)c(Cl)cc1Cl` (stereo not given) was tested, and the T/C (dose: 50.0 mg/kg/injection, schedule: Q01DX001 (ip), vehicle: carboxymethylcellulose (CMC)) was 96 % of control, the T/C [1] was 96 % of control and the T/C [2] was 107 % of control. For the same compound, the T/C [3] was 107 % of control.
`NC(=S)N/N=C1\CC(c2ccccc2)Oc2ccccc21` (stereo not given) was tested, and the T/C [4] was 88 % of control.
For `C/C=C/c1ccccc1C(C)=O`, the T/C (dose: 100.0 mg/kg/injection, schedule: Q04DX003 (sc), vehicle: olive oil, sesame oil, peanut oil) was 105 % of control, the T/C (dose: 200.0 mg/kg/injection, schedule: Q04DX003 (sc), vehicle: olive oil, sesame oil, peanut oil) was 105 % of control and the T/C (dose: 400.0 mg/kg/injection, schedule: Q04DX003 (sc), vehicle: olive oil, sesame oil, peanut oil) was 100 % of control.
With `O=C(Nc1cc2ccccc2cc1C(=O)O)Nc1cccc2ccccc12` the T/C (dose: 100.0 mg/kg/injection, schedule: Q01DX009 (ip), vehicle: Klucel (hydroxypropylcellulose) (HPC)) was 97 % of control, the T/C (dose: 200.0 mg/kg/injection, schedule: Q01DX009 (ip), vehicle: Klucel (hydroxypropylcellulose) (HPC)) was 101 % of control and the T/C (dose: 400.0 mg/kg/injection, schedule: Q01DX009 (ip), vehicle: Klucel (hydroxypropylcellulose) (HPC)) was 100 % of control.

— PubChem BioAssay AID248 (DTP/NCI, 2004)
